Laboratory results reported in PubChem BioAssay AID1963960 (Molecular Pharmacology Branch, DTP, NCI, 2024).

System: MDA-MB-468 spheroids with HUVEC/MSC, viability
Experiment: Anticancer human tumor MDA-MB-468 cell line growth inhibition [PI3K];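 note: spheroids exposed to agents for seven days before readout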;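 for viability, T/C: 100% = DMSO vehicle control viability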
Conditions: for IC50: curve of first compound; for viability, T/C: stronger effect = lower value
Method in brief: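 Multi-cell spheroids combine tumor cells with HUVEC and human MSCs, treated with targeted agents alone or with inavolisib, alpelisib, duvelisib or copanlisib. Concentrations fall in half-log steps from at or near clinical Cmax, or from 10 microM where Cmax is unknown; viability read-out.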

[1] = second compound 0.0316 µM, first compound 0.0316 µM
[2] = second compound 0.0316 µM, first compound 0.1 µM
[3] = second compound 0.0316 µM, first compound 0.316 µM
[4] = second compound 0.0316 µM, first compound 1 µM
[5] = second compound 0.0316 µM, first compound 3.16 µM
[6] = second compound 0.0316 µM, first compound 10 µM
[7] = second compound 0.1 µM, first compound 0.0316 µM
[8] = second compound 0.1 µM, first compound 0.1 µM
[9] = second compound 0.1 µM, first compound 0.316 µM
[10] = second compound 0.1 µM, first compound 1 µM
[11] = second compound 0.1 µM, first compound 3.16 µM
[12] = second compound 0.1 µM, first compound 10 µM
[13] = second compound 0.316 µM, first compound 0.0316 µM
[14] = second compound 0.316 µM, first compound 0.1 µM
[15] = second compound 0.316 µM, first compound 0.316 µM
[16] = second compound 0.316 µM, first compound 1 µM
[17] = second compound 0.316 µM, first compound 3.16 µM
[18] = second compound 0.316 µM, first compound 10 µM
[19] = second compound 1 µM, first compound 0.0316 µM
[20] = second compound 1 µM, first compound 0.1 µM
[21] = second compound 1 µM, first compound 0.316 µM
[22] = second compound 1 µM, first compound 1 µM
[23] = second compound 1 µM, first compound 3.16 µM
[24] = second compound 1 µM, first compound 10 µM

**Q.** Which results are given for `CC1(C)CCC(Nc2ncc(C(F)(F)F)c(-c3c[nH]c4c(P(C)(C)=O)c(C#N)ccc34)n2)CN1` (stereo unspecified) + COc1c(OCCCN2CCOCC2)ccc2c3n(c(=NC(=O)c4cnc(N)nc4)nc12)CCN3?
**A.** IC50 (second compound 0.00316 µM): < 31.6 nM; IC50 (second compound 0.01 µM): < 31.6 nM; IC50 (second compound 0.0316 µM): < 31.6 nM; IC50 (second compound 0.1 µM): < 31.6 nM; IC50 (second compound 0.316 µM): < 31.6 nM; IC50 (second compound 1 µM): < 31.6 nM; viability, T/C (second compound 0.00316 µM, first compound 0.0316 µM): 9.69%; viability, T/C (second compound 0.00316 µM, first compound 0.1 µM): 8.09%; viability, T/C (second compound 0.00316 µM, first compound 0.316 µM): 7.16%; viability, T/C (second compound 0.00316 µM, first compound 1 µM): 7.44%; viability, T/C (second compound 0.00316 µM, first compound 3.16 µM): 6.56%; viability, T/C (second compound 0.00316 µM, first compound 10 µM): 1.22%; viability, T/C (second compound 0.01 µM, first compound 0.0316 µM): 8.56%; viability, T/C (second compound 0.01 µM, first compound 0.1 µM): 7.53%; viability, T/C (second compound 0.01 µM, first compound 0.316 µM): 6.69%; viability, T/C (second compound 0.01 µM, first compound 1 µM): 6.66%; viability, T/C (second compound 0.01 µM, first compound 3.16 µM): 6.59%; viability, T/C (second compound 0.01 µM, first compound 10 µM): 1.41%; viability, T/C [1]: 8.31%; viability, T/C [2]: 8.47%; viability, T/C [3]: 7.44%; viability, T/C [4]: 6.08%; viability, T/C [5]: 6.49%; viability, T/C [6]: 1.91%; viability, T/C [7]: 9.69%; viability, T/C [8]: 8.3%; viability, T/C [9]: 7.97%; viability, T/C [10]: 6.87%; viability, T/C [11]: 6%; viability, T/C [12]: 2.2%; viability, T/C [13]: 8.16%; viability, T/C [14]: 6.87%; viability, T/C [15]: 6.83%; viability, T/C [16]: 5.84%; viability, T/C [17]: 4.35%; viability, T/C [18]: 1.03%; viability, T/C [19]: 4.03%; viability, T/C [20]: 3.59%; viability, T/C [21]: 3.45%; viability, T/C [22]: 4.91%; viability, T/C [23]: 3.08%; viability, T/C [24]: 0.82%

**Q.** What does the source list for `CNC(=O)c1ccc(N2C(=S)N(c3ccc(C#N)c(C(F)(F)F)c3)C(=O)C2(C)C)cc1F` + Cc1nc(NC(=O)N2CCCC2C(N)=O)sc1-c1ccnc(C(C)(C)C(F)(F)F)c1?
**A.** IC50 (second compound 0.0316 µM): > 10000 nM; IC50 (second compound 0.1 µM): > 10000 nM; IC50 (second compound 0.316 µM): > 10000 nM; IC50 (second compound 1 µM): > 10000 nM; IC50 (second compound 3.16 µM): 4900 nM; IC50 (second compound 10 µM): < 31.6 nM; viability, T/C [1]: 96.8%; viability, T/C [2]: 97.2%; viability, T/C [3]: 83.9%; viability, T/C [4]: 114%; viability, T/C [5]: 97.4%; viability, T/C [6]: 62.5%; viability, T/C [7]: 92.4%; viability, T/C [8]: 101%; viability, T/C [9]: 96.2%; viability, T/C [10]: 106%; viability, T/C [11]: 82.8%; viability, T/C [12]: 52.2%; viability, T/C [13]: 99.8%; viability, T/C [14]: 78.2%; viability, T/C [15]: 73.3%; viability, T/C [16]: 103%; viability, T/C [17]: 74.6%; viability, T/C [18]: 59%; viability, T/C [19]: 97%; viability, T/C [20]: 76.9%; viability, T/C [21]: 67.4%; viability, T/C [22]: 90.5%; viability, T/C [23]: 59.2%; viability, T/C [24]: 58%; viability, T/C (second compound 3.16 µM, first compound 0.0316 µM): 79.8%; viability, T/C (second compound 3.16 µM, first compound 0.1 µM): 64.5%; viability, T/C (second compound 3.16 µM, first compound 0.316 µM): 65.3%; viability, T/C (second compound 3.16 µM, first compound 1 µM): 74.8%; viability, T/C (second compound 3.16 µM, first compound 3.16 µM): 49.4%; viability, T/C (second compound 3.16 µM, first compound 10 µM): 42.5%; viability, T/C (second compound 10 µM, first compound 0.0316 µM): 39.8%; viability, T/C (second compound 10 µM, first compound 0.1 µM): 28.3%; viability, T/C (second compound 10 µM, first compound 0.316 µM): 35.4%; viability, T/C (second compound 10 µM, first compound 1 µM): 29.4%; viability, T/C (second compound 10 µM, first compound 3.16 µM): 25.2%; viability, T/C (second compound 10 µM, first compound 10 µM): 25.6%

**Q.** What does the source list for `Cn1cnc2c(F)c(Nc3ccc(Br)cc3Cl)c(C(=O)NOCCO)cc21` + Cc1nc(NC(=O)N2CCCC2C(N)=O)sc1-c1ccnc(C(C)(C)C(F)(F)F)c1?
**A.** IC50 (second compound 0.0316 µM): > 3000 nM; IC50 (second compound 0.1 µM): 1810 nM; IC50 (second compound 0.316 µM): 949 nM; IC50 (second compound 1 µM): 385 nM; IC50 (second compound 3.16 µM): 18.1 nM; IC50 (second compound 10 µM): < 9.49 nM; viability, T/C (second compound 0.0316 µM, first compound 0.00949 µM): 75.3%; viability, T/C (second compound 0.0316 µM, first compound 0.03 µM): 80%; viability, T/C (second compound 0.0316 µM, first compound 0.0949 µM): 76.9%; viability, T/C (second compound 0.0316 µM, first compound 0.3 µM): 94.1%; viability, T/C (second compound 0.0316 µM, first compound 0.949 µM): 69.4%; viability, T/C (second compound 0.0316 µM, first compound 3 µM): 50.8%; viability, T/C (second compound 0.1 µM, first compound 0.00949 µM): 82.7%; viability, T/C (second compound 0.1 µM, first compound 0.03 µM): 77.6%; viability, T/C (second compound 0.1 µM, first compound 0.0949 µM): 77.8%; viability, T/C (second compound 0.1 µM, first compound 0.3 µM): 86.5%; viability, T/C (second compound 0.1 µM, first compound 0.949 µM): 60.7%; viability, T/C (second compound 0.1 µM, first compound 3 µM): 41.5%; viability, T/C (second compound 0.316 µM, first compound 0.00949 µM): 98.5%; viability, T/C (second compound 0.316 µM, first compound 0.03 µM): 82.2%; viability, T/C (second compound 0.316 µM, first compound 0.0949 µM): 69.7%; viability, T/C (second compound 0.316 µM, first compound 0.3 µM): 74.5%; viability, T/C (second compound 0.316 µM, first compound 0.949 µM): 46.9%; viability, T/C (second compound 0.316 µM, first compound 3 µM): 34.2%; viability, T/C (second compound 1 µM, first compound 0.00949 µM): 66.9%; viability, T/C (second compound 1 µM, first compound 0.03 µM): 69.4%; viability, T/C (second compound 1 µM, first compound 0.0949 µM): 57.2%; viability, T/C (second compound 1 µM, first compound 0.3 µM): 54.2%; viability, T/C (second compound 1 µM, first compound 0.949 µM): 40.1%; viability, T/C (second compound 1 µM, first compound 3 µM): 25.6%; viability, T/C (second compound 3.16 µM, first compound 0.00949 µM): 53.9%; viability, T/C (second compound 3.16 µM, first compound 0.03 µM): 47.8%; viability, T/C (second compound 3.16 µM, first compound 0.0949 µM): 37.5%; viability, T/C (second compound 3.16 µM, first compound 0.3 µM): 33.8%; viability, T/C (second compound 3.16 µM, first compound 0.949 µM): 21.2%; viability, T/C (second compound 3.16 µM, first compound 3 µM): 12.4%; viability, T/C (second compound 10 µM, first compound 0.00949 µM): 28.8%; viability, T/C (second compound 10 µM, first compound 0.03 µM): 14.7%; viability, T/C (second compound 10 µM, first compound 0.0949 µM): 15.8%; viability, T/C (second compound 10 µM, first compound 0.3 µM): 12.1%; viability, T/C (second compound 10 µM, first compound 0.949 µM): 7.32%; viability, T/C (second compound 10 µM, first compound 3 µM): 4.97%
